According to paper PMC11547513, “Design, Synthesis and Biological Activity Evaluation of β-Carboline Derivatives Containing Nitrogen Heterocycles” (Molecules, 2024):
Values joined by “and” are separate entries in the source; they are usually repeats but may differ in a detail not shown here. Equal entries are not always repeated. Where two headings read alike, the source gives them in different places.

How the values were obtained:
[1] = system: K562 (human chronic myeloid leukemia cell); experiment: MTT assay, in vitro cytotoxicity on K562
From the text: (§2) Cells were purchased from the Cell Bank of the Chinese Academy of Sciences (Kunming, China).

[2] = system: PC-3 (human prostate cancer cell); experiment: MTT assay, in vitro cytotoxicity on PC-3
From the text: as §2

Cyclin D1 = experiment: Western blot of Cyclin D1 expression in PC-3 cells; type: cell-based, human; conditions: 30 μM, 24 h, β-Tubulin internal reference
Procedure: (§1) To analyze the effect of compound 8q on cell cycle, the cycle of PC-3 cells was detected after being treated with compound 8q for 24 h (Figure 5). […] In addition, Cyclin D1, a cell cycle-related protein, is a key regulator of cycle progression, mainly regulating G1/S phase transition. […] In summary, compound 8q can arrest cells in the G0/G1 phase. […]
2.6.Effects of 8q on expression of cell cycle related protein
PC-3 cells were seeded in six-well plates at a density of 3 × 10^5 per well and incubated in 5 % CO2 incubator at 37 ℃ for 24 h. Then different concentrations of 8q and Harmine were added to continue cultivation for 24 h. The prepared 1× RIPA lysis buffer (Solarbio, Beijing, China), as well as protease (Solarbio, Beijing, China) and phosphatase inhibitors (Solarbio, Beijing, China), were added to the well in a ratio of 100:1:1. The cells were scraped off and then lysed on ice for 40 min. Mixed liquid was centrifuged, and the supernatant used the BCA protein assay kit (Beyotime, Shanghai, […]
China) to measure protein concentration. 12.5% SDS-PAGE gel was used to separate the extracted total protein, which was transferred onto a PVDF membrane and sealed with 5% skim milk for 2.5 h. After that, primary antibodies included β-Tubulin and Cyclin D1 were added and incubated overnight at 4 ℃. […]

PC-3 cells [3] = experiment: Cell cycle assay (PI, flow cytometry); type: cell-based, human; conditions: 24 h; for Cell cycle distribution, S phase: negative control 20.8%; for Cell cycle distribution, G2/M phase: negative control 23.6%; for Cell cycle distribution, G0/G1 phase: negative control 50.6%
Procedure: as §1
2.5. Cell cycle arrest of compound 8q on PC-3
To determine the effect of compound 8q on the cell cycle distribution of PC-3 cell, we used our previous method with slight modifications2. Briefly, cells were incubated in a six-well plate with a density of 3 × 105 at 37 ℃ and 5% CO2 for 24 h, followed by the addition of different concentrations of compound 8q for further incubation for 24 h.
Next, the cells were collected and washed twice with PBS. 75% anhydrous ethanol was used to immobilize the cells under overnight conditions at 4 ℃. Subsequently, PBS washed cells, and RNase from the cell cycle assay kit (Solarbio, Beijing, China) was added and incubated in a constant temperature (37 ℃) water bath for 30 min. Then PI was added under dark conditions and incubated at 4 ℃ for another half hour to detect.
The distribution of cycles was analyzed by Flow Jo and Prism 7.04 software. […]

PC-3 cells [4] = experiment: Colony formation assay; type: cell-based, human; conditions: Figure 3A
PC-3 cells [5] = experiment: Wound healing assay; type: cell-based, human; conditions: 24 h, control group 46.41%
Procedure: Given that cell migration plays a pivotal role in tumor cell invasion, to further validate the impact of compound 8q on PC-3 cell motility, a wound healing assay was conducted. […] These findings underscore the potent inhibitory effect of compound 8q on the motility of PC-3 cells. […]
a wound healing assay was performed using the method we previously reported1. In short, PC-3 cells were seeded in a six-well plate at a density of 10 × 105 and incubated at a constant temperature of 37 ℃ and 5% CO2 for 24 h. Then the pipette tip was used to create a uniform wound on the surface of cells. Subsequently, after cleaning twice with PBS, the scratch healing of the 8q treatment group and the positive drug treatment […]
was used to measure and quantify cell migration. […]

PC-3 cells [6] = experiment: Annexin V-FITC/PI apoptosis, flow cytometry; type: cell-based, human; conditions: 10 μM
From the text: Apoptosis is an important target for antitumor therapy. To explore the antitumor mechanism of compound 8q, cell apoptosis was detected using flow cytometry. […] Moreover, reactive oxygen species (ROS) play a significant role in cell growth, differentiation and apoptosis. Excessive ROS can cause oxidative damage and lead to cell apoptosis. […]
2.3.The effect of compound 8q on cell apoptosis
We used Annexin V-FITC/ PI double staining to evaluate cellular apoptosis via flow cytometry to figure out if apoptosis participates in the inhibition of cell growth.
PC-3 cells were seeded in a six-well plate at a density of 3 × 105, and cultured at 37 ℃ and 5% CO2 for 24 h before adding 10 μM. 20 μM and 30 μM compound 8q and 30 μM Harmine to each well. After 48 h, the cells were collected and stained and incubated flowing the manufacturer ’s protocol of the Annexin V-FITC/PI Apoptosis Detection Kit (Solarbio, Beijing, China). After completion, the cells were immediately detected on the Flow Cytometry (Solarbio, Beijing, China). The experimental results were processed using Flow Jo and Prism 7.04 software. […]

[7] = system: Hek-293T (human embryonic kidney cells); experiment: MTT assay, in vitro cytotoxicity on normal Hek-293T; conditions: read-out: Inhibitory Activity/% at 10 μM, Hek-293T
From the text: as §2

## COc1cc(-c2nc(-c3nnc(SCC(=O)Nc4ccc(CN5CCOCC5)cc4)o3)cc3c2[nH]c2ccccc23)cc(OC)c1OC [Compound 8q, N-(4-(morpholinomethyl)phenyl)-2-((5-(1-(3,4,5-trimethoxyphenyl)-9H-pyrido[3,4-b]indol-3-yl)-1,3,4-oxadiazol-2-yl)thio)acetamide]
[1]; Homo sapiens, K562, read-out: IC50 (Mean ± S.D.), K562, average of three replicates
  IC50: 11.2 µM
[1]; Homo sapiens, K562, read-out: Inhibitory Activity/% at 10 μM, K562
  inhibition at 10 µM: 25.6 ± 14.9%
[1]; read-out: IC50 (Mean ± S.D.), K562, average of three replicates
  IC50: 11.7 ± 0.21 µM
[2]; Homo sapiens, read-out: IC50 (Mean ± S.D.), PC-3, average of three replicates
  IC50: < 10 µM
[2]; Homo sapiens, read-out: Inhibitory Activity/% at 10 μM, PC-3, Table 2 (8 series), 10 μM, average of three replicates, "/" means no anticancer activity
  inhibition at 10 µM: 46.1 ± 0.74%
[2]; read-out: IC50 (Mean ± S.D.), PC-3, average of three replicates
  IC50: 9.86 ± 1.03 µM
Cyclin D1
  Expression of Cyclin D1: significantly downregulated
PC-3 cells [3]; 10 μM
  Cell cycle distribution, S phase: 14.2%
  Cell cycle distribution, G2/M phase: 20.8%
  Cell cycle distribution, G0/G1 phase: 55.66% and 58.5%
PC-3 cells [3]; 20 μM
  Cell cycle distribution, S phase: 13.0%
  Cell cycle distribution, G2/M phase: 18.4%
  Cell cycle distribution, G0/G1 phase: 60.83% and 63.0%
PC-3 cells [3]; 30 μM
  Cell cycle distribution, S phase: 9.01%
  Cell cycle distribution, G2/M phase: 20.5%
  Cell cycle distribution, G0/G1 phase: 62.03% and 64.9%
PC-3 cells [4]
  Inhibition of colony formation (proliferation) of PC-3 cells: concentration-dependent manner
PC-3 cells [5]; 10 μM
  Migration rate of PC-3 cells: 29.56%
PC-3 cells [5]; 20 μM
  Migration rate of PC-3 cells: 26.32%
PC-3 cells [5]; 30 μM
  Migration rate of PC-3 cells: 19.99%
PC-3 cells [6]; 48 h
  Total apoptosis rate in PC-3 cells: 63.23%
PC-3 cells [6]; Figure 4A
  Annexin V-FITC/PI flow cytometry quadrant Q1: 0.35
  Annexin V-FITC/PI flow cytometry quadrant Q2: 22.7
  Annexin V-FITC/PI flow cytometry quadrant Q3: 32.9
  Annexin V-FITC/PI flow cytometry quadrant Q4: 44.1
[7]
  inhibition at 10 µM: 54.8 ± 0.99%
